Results reported in ChEMBL document CHEMBL1156106 (J Med Chem, 2009).

Columns and labels:
Rattus norvegicus [1] = test: Effect on behavioural activity in ip dosed rat assessed as cocaine-induced lever response pretreated with cocaine by drug-discrimination studies; assay type: functional
Rattus norvegicus [2] = test: Effect on behavioural activity in rat assessed as cocaine-induced lever response at 2.5 mg/kg, po pretreated with cocaine for 45 mins by drug-discrimination studies; assay type: functional
Rattus norvegicus [3] = test: Effect on behavioural activity in rat assessed as cocaine-induced lever response at 2.5 mg/kg, po pretreated with cocaine for 90 mins by drug-discrimination studies; assay type: functional
Rattus norvegicus [4] = test: Effect on behavioural activity in rat assessed as cocaine-induced lever response at 2.5 mg/kg, po pretreated with cocaine for 180 mins by drug-discrimination studies; assay type: functional
Rattus norvegicus [5] = test: Effect on behavioural activity in rat assessed as cocaine-induced lever response at 2.5 mg/kg, po pretreated with cocaine for 360 mins by drug-discrimination studies; assay type: functional
Rattus norvegicus [6] = test: Effect on behavioural activity in rat assessed as cocaine-induced lever response at 5 mg/kg, po pretreated with cocaine for 45 mins by drug-discrimination studies; assay type: functional
Rattus norvegicus [7] = test: Effect on behavioural activity in rat assessed as cocaine-induced lever response at 5 mg/kg, po pretreated with cocaine for 180 mins by drug-discrimination studies; assay type: functional
Rattus norvegicus [8] = test: Effect on behavioural activity in rat assessed as cocaine-induced lever response at 5 mg/kg, po pretreated with cocaine for 360 mins by drug-discrimination studies; assay type: functional
Rattus norvegicus [9] = test: Effect on behavioural activity in rat assessed as cocaine-induced lever response at 10 mg/kg, po pretreated with cocaine for 45 mins by drug-discrimination studies; assay type: functional
Rattus norvegicus [10] = test: Effect on behavioural activity in rat assessed as cocaine-induced lever response at 10 mg/kg, po pretreated with cocaine for 90 mins by drug-discrimination studies; assay type: functional
Rattus norvegicus [11] = test: Effect on behavioural activity in rat assessed as cocaine-induced lever response at 10 mg/kg, po pretreated with cocaine for 180 mins by drug-discrimination studies; assay type: functional
Rattus norvegicus [12] = test: Effect on behavioural activity in rat assessed as cocaine-induced lever response at 10 mg/kg, po pretreated with cocaine for 360 mins by drug-discrimination studies; assay type: functional
Rattus norvegicus [13] = test: Effect on behavioural activity in rat assessed as cocaine-induced lever response at 25 mg/kg, po pretreated with cocaine for 45 mins by drug-discrimination studies; assay type: functional
Rattus norvegicus [14] = test: Effect on behavioural activity in rat assessed as cocaine-induced lever response at 25 mg/kg, po pretreated with cocaine for 90 mins by drug-discrimination studies; assay type: functional
Rattus norvegicus [15] = test: Effect on behavioural activity in rat assessed as cocaine-induced lever response at 25 mg/kg, po pretreated with cocaine for 180 mins by drug-discrimination studies; assay type: functional
Rattus norvegicus [16] = test: Effect on behavioural activity in rat assessed as cocaine-induced lever response at 25 mg/kg, po pretreated with cocaine for 360 mins by drug-discrimination studies; assay type: functional
Rattus norvegicus [17] = test: Effect on behavioural activity in rat assessed as cocaine-induced lever response at 50 mg/kg, po pretreated with cocaine for 45 mins by drug-discrimination studies; assay type: functional
Rattus norvegicus [18] = test: Effect on behavioural activity in rat assessed as cocaine-induced lever response at 50 mg/kg, po pretreated with cocaine for 90 mins by drug-discrimination studies; assay type: functional
Rattus norvegicus [19] = test: Effect on behavioural activity in rat assessed as cocaine-induced lever response at 50 mg/kg, po pretreated with cocaine for 180 mins by drug-discrimination studies; assay type: functional
Rattus norvegicus [20] = test: Effect on behavioural activity in rat assessed as cocaine-induced lever response at 50 mg/kg, po pretreated with cocaine for 360 mins by drug-discrimination studies; assay type: functional
Mus musculus [21] = test: Antidepressant activity in ip dosed mouse assessed as stimulation of locomotor activity; assay type: functional
Mus musculus [22] = test: Antidepressant activity in ip dosed mouse assessed as stimulation of locomotor activity relative to cocaine; assay type: functional
Mus musculus [23] = test: Antidepressant activity in ip dosed mouse assessed as time to reach peak stimulation of locomotor activity; assay type: functional
Mus musculus [24] = test: Antidepressant activity in ip dosed mouse assessed as duration of locomotor activity; assay type: functional
Rattus norvegicus [25] = test: Effect on behavioural activity in po dosed rat assessed as cocaine-induced lever response pretreated with cocaine by drug-discrimination studies; assay type: functional
Rattus norvegicus [26] = test: Effect on behavioural activity in rat assessed as cocaine-induced lever response at 1 mg/kg, ip pretreated with cocaine for 30 mins by drug-discrimination studies; assay type: functional; details: route intraperitoneal
Rattus norvegicus [27] = test: Effect on behavioural activity in rat assessed as cocaine-induced lever response at 2.5 mg/kg, ip pretreated with cocaine for 30 mins by drug-discrimination studies; assay type: functional; details: route intraperitoneal
Rattus norvegicus [28] = test: Effect on behavioural activity in rat assessed as cocaine-induced lever response at 5 mg/kg, ip pretreated with cocaine for 30 mins by drug-discrimination studies; assay type: functional; details: route intraperitoneal
Rattus norvegicus [29] = test: Effect on behavioural activity in rat assessed as cocaine-induced lever response at 25 mg/kg, ip pretreated with cocaine for 30 mins by drug-discrimination studies; assay type: functional; details: route intraperitoneal
Rattus norvegicus [30] = test: Effect on behavioural activity in rat assessed as cocaine-induced lever response at 5 mg/kg, po pretreated with cocaine for 90 mins by drug-discrimination studies; assay type: functional
[31] = target: Sodium-dependent serotonin transporter (Homo sapiens, UniProt P31645); test: biochemical; assay type: cell-based, HEK293
Rattus norvegicus [32] = test: Effect on behavioural activity in rat assessed as cocaine-induced lever response at 10 mg/kg, ip pretreated with cocaine for 30 mins by drug-discrimination studies; assay type: functional; details: route intraperitoneal
Rattus norvegicus [33] = test: Effect on behavioural activity in rat assessed as cocaine-induced lever response at 100 mg/kg, po pretreated with cocaine for 45 mins by drug-discrimination studies; assay type: functional
Rattus norvegicus [34] = test: Effect on behavioural activity in rat assessed as cocaine-induced lever response at 100 mg/kg, po pretreated with cocaine for 90 mins by drug-discrimination studies; assay type: functional
Rattus norvegicus [35] = test: Effect on behavioural activity in rat assessed as cocaine-induced lever response at 100 mg/kg, po pretreated with cocaine for 180 mins by drug-discrimination studies; assay type: functional
[36] = target: Sodium-dependent noradrenaline transporter (Homo sapiens, UniProt P23975); test: Displacement of [125I]RTI55 from cloned human NET expressed in HEK293 cells; assay type: cell-based
Rattus norvegicus [37] = test: Effect on behavioural activity in rat assessed as cocaine-induced lever response at 2.5 mg/kg, ip pretreated with cocaine for 15 mins by drug-discrimination studies; assay type: functional; details: route intraperitoneal
Rattus norvegicus [38] = test: Effect on behavioural activity in rat assessed as cocaine-induced lever response at 5 mg/kg, ip pretreated with cocaine for 15 mins by drug-discrimination studies; assay type: functional; details: route intraperitoneal
Rattus norvegicus [39] = test: Effect on behavioural activity in rat assessed as cocaine-induced lever response at 10 mg/kg, ip pretreated with cocaine for 15 mins by drug-discrimination studies; assay type: functional; details: route intraperitoneal
Rattus norvegicus [40] = test: Effect on behavioural activity in rat assessed as cocaine-induced lever response at 25 mg/kg, ip pretreated with cocaine for 15 mins by drug-discrimination studies; assay type: functional; details: route intraperitoneal
Rattus norvegicus [41] = test: Effect on behavioural activity in rat assessed as cocaine-induced lever response at 100 mg/kg, po pretreated with cocaine for 360 mins by drug-discrimination studies; assay type: functional

Sodium-dependent serotonin transporter, sequence (P31645 whole entry): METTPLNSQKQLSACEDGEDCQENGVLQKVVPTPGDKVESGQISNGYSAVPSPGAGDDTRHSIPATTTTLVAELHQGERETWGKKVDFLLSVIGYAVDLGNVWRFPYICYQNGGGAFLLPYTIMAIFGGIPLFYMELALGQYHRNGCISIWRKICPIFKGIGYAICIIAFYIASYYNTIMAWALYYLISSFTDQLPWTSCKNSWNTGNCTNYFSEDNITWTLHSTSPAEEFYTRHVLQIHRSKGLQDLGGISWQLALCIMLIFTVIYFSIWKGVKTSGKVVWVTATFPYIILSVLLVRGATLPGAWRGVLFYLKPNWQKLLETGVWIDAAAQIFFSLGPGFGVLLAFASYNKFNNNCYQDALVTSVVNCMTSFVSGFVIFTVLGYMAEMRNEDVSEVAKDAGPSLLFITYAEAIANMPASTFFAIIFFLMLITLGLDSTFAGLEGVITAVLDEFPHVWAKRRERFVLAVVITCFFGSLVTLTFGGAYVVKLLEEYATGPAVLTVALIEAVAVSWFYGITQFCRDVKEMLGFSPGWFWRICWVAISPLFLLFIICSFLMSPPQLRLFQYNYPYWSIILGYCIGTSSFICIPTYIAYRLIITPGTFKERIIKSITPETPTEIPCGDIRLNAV
Sodium-dependent noradrenaline transporter, sequence (P23975 whole entry): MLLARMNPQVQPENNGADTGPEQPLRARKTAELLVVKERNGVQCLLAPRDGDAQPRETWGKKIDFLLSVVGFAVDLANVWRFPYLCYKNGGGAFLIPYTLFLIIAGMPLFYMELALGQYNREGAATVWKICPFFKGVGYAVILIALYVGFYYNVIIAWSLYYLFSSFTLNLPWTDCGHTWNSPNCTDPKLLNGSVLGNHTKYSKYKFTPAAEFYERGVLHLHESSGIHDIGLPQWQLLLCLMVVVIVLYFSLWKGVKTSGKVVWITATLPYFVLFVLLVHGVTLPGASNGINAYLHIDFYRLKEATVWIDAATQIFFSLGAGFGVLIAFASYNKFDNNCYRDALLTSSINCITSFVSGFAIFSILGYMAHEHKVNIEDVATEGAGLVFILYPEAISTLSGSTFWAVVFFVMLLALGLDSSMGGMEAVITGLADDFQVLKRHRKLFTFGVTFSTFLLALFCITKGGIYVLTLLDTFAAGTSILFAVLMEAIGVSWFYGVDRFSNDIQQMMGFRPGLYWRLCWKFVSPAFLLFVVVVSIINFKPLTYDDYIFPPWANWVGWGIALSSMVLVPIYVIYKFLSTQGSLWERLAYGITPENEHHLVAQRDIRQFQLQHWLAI

Row | SMILES | ED50 (Rattus norvegicus [1]) [mg/kg] | Activity (Rattus norvegicus [2]) [%] | Activity (Rattus norvegicus [6]) [%] | Activity (Rattus norvegicus [7]) [%] | Activity (Rattus norvegicus [8]) [%] | Activity (Rattus norvegicus [9]) [%] | Activity (Rattus norvegicus [10]) [%] | Activity (Rattus norvegicus [11]) [%] | Activity (Rattus norvegicus [13]) [%] | Activity (Rattus norvegicus [14]) [%] | Activity (Rattus norvegicus [15]) [%] | Activity (Rattus norvegicus [16]) [%] | Activity (Rattus norvegicus [17]) [%] | Activity (Rattus norvegicus [19]) [%] | Activity (Rattus norvegicus [20]) [%] | ED50 (Mus musculus [21]) [mg/kg] | Activity (Mus musculus [22]) [%] | Time to peak locomotor stimulation (Mus musculus [23]) [min] | Time (Mus musculus [24]) [min] | ED50 (Rattus norvegicus [25]) [mg/kg] | further results
1 | CCC(NC(C)(C)C)C(=O)c1ccc(Cl)c(Cl)c1 (stereo unspecified) | 6.3 | 33 | 17 | 0 | 0 | 34 | 0 | 0 | 50 | 33 | 2 | 33 | 83 | 50 | 16 | 38 | 69 | 0 | 60 | 15.2 | Activity (Rattus norvegicus [3]): 17%; Activity (Rattus norvegicus [4]): 50%; Activity (Rattus norvegicus [5]): 17%; Activity (Rattus norvegicus [12]): 2%; Activity (Rattus norvegicus [18]): 67%; Activity (Rattus norvegicus [26]): 0%; Activity (Rattus norvegicus [27]): 33.3%; Activity (Rattus norvegicus [28]): 16.7%; Activity (Rattus norvegicus [29]): 100%
2 | CC(NC1CCCC1)C(=O)c1cccc(Cl)c1 (stereo unspecified) | 10.9 | 17 | 50 | 0 | 0 | 60 | 33 | 0 | 67 | 67 | – | 34 | 100 | 33 | 16 | 12.3 | 107 | 0 | 330 | 6.6 | Activity (Rattus norvegicus [30]): 0%; Ki [31]: > 10 µM; Activity (Rattus norvegicus [26]): 0.9%; Activity (Rattus norvegicus [27]): 23.9%; Activity (Rattus norvegicus [28]): 0%; Activity (Rattus norvegicus [32]): 66.2%; Activity (Rattus norvegicus [29]): 83.4%
3 | CC(NC(C)(C)C)C(=O)c1cccc(F)c1 (stereo unspecified) | 11.6 | – | 17 | 0 | 0 | 17 | 0 | 33 | 49 | 16 | 0 | 0 | 67 | 18 | 0 | 17.5 | 80 | 0 | 150 | 25.3 | Activity (Rattus norvegicus [30]): 0%; Activity (Rattus norvegicus [18]): 33%; Activity (Rattus norvegicus [33]): 95%; Activity (Rattus norvegicus [34]): 75%; Activity (Rattus norvegicus [35]): 83%; Ki [31]: > 10 µM; Ki [36]: > 10 µM; Activity (Rattus norvegicus [37]): 17.6%; Activity (Rattus norvegicus [38]): 0%; Activity (Rattus norvegicus [39]): 50.2%; Activity (Rattus norvegicus [40]): 100%; Activity (Rattus norvegicus [41]): 50%
